Values of other authors, collected in patent US10363219B2, “Method of preparing albumin nanoparticle carrier wrapping taxane drug” (Zhejiang Academy of Forestry, priority 2016, dated 2019).

Conditions: relative to paclitaxel

CC(=O)O[C@@]12CO[C@@H]1C[C@H](O)[C@@]1(C)C(=O)[C@H](O)C3=C(C)[C@@H](OC(=O)[C@H](O)[C@@H](NC(=O)OC(C)(C)C)c4ccccc4)C[C@@](O)([C@@H](OC(=O)c4ccccc4)[C@H]21)C3(C)C [Docetaxel]
cytotoxic effect, times of that of paclitaxel: 1.3-12 times
